These results are taken from article PMC3006429 (PLoS ONE, 2010).

“And” between values parts separate entries of the source, which are not always exact repeats. Equal values may be shown once. Read-outs that look alike come from different tables or passages of the source.

For data set [1], the target named is T1, FMDV 3Dpol (Foot-and-mouth disease virus, UniProt P03311). The data set can be described thus: biochemical. Particulars: IC50 of 3Dpol inhibition (gel-based).
Data set [2] deals with HIV-1 reverse transcriptase (HIV-1 RT) (Human immunodeficiency virus type 1 group M subtype B, UniProt P03366). Format: biochemical.
Another data set has as its target WT 3Dpol (Foot-and-mouth disease virus, UniProt P03311). Put plainly: biochemical. As to conditions: IC50 (filter binding assay).
Data set [3] concerns the target Klenow Fragment (KF) of E. coli DNA polymerase I (Escherichia coli, UniProt P00582). Format: biochemical.
A further data set deals with FMDV. Particulars: cited from earlier work; for EC50: read-out: EC50 (FMDV replication in cell cultures); for EC90: read-out: EC90 (FMDV replication in cell cultures).
The nature of the next data set: in vitro. As to conditions: hamster.
Data set [4] deals with T1, FMDV 3Dpol. Put plainly: biochemical. Format: biochemical.
Another data set has as its system FMDV A24 Cruzeiro. The data set can be described thus: microbe, parasite or virus in culture. Format: cell-based, Foot-and-Mouth Disease Virus.
Data set [5] deals with T1, FMDV 3Dpol. Put plainly: biochemical.

Klenow Fragment (KF) of E. coli DNA polymerase I, sequence (P00582 324-928): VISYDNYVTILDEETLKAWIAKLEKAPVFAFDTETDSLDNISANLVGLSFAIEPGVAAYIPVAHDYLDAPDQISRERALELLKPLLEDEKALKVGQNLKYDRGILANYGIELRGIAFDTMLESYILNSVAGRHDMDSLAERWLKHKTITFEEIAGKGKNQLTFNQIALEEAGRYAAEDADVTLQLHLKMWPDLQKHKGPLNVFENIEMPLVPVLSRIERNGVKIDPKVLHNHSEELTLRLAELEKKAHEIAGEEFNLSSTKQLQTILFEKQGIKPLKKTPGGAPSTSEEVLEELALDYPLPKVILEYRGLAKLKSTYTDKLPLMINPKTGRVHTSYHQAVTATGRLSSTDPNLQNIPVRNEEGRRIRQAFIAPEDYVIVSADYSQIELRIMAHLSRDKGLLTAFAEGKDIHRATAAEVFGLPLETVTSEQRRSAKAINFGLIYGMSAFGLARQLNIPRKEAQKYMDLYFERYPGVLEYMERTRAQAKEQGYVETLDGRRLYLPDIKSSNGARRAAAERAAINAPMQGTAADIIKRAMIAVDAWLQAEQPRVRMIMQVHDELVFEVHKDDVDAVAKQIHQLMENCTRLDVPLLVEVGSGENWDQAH
WT 3Dpol, sequence (P03311 1858-2327 limits assumed): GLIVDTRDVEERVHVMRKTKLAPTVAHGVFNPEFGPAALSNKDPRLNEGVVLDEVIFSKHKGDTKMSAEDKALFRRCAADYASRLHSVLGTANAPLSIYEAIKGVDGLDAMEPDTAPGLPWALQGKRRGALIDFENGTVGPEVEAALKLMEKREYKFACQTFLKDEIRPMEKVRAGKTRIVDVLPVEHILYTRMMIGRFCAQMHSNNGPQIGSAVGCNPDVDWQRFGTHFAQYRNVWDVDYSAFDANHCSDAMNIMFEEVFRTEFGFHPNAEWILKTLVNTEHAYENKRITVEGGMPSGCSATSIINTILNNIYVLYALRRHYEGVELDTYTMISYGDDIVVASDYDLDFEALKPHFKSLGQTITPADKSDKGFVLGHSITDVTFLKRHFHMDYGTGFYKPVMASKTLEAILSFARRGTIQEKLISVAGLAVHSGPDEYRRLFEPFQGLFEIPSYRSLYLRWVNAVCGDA
T1 sequence (P03311 1858-2327 limits assumed): as above

For the molecule `O=[N+]([O-])c1ccc(Sc2ccc(Cl)cc2Cl)c2nonc12` [1A8], the IC50 against FMDV 3Dpol [1] is 17.8 µM; on WT 3Dpol, 17.4 µM and 17.8 µM. In data set [2], the “inhibition of HIV-1 RT polymerase activity” value is “No significant inhibition”. Besides, the “inhibition of KF polymerase activity” value in data set [3] was “No significant inhibition”.

As to `C[C@@]1(O)[C@H](O)[C@@H](CO)O[C@H]1n1ccc(N)nc1=O` [2′-C-methylcytidine], in the data set on FMDV, the EC50 is 10 µM and the EC90 is 15 µM.

On to `N#CC(C(=O)Nc1cccc(C(F)(F)F)c1)C(=S)Nc1ccccc1Cl` (centres unmarked) [3A11], for which, on FMDV 3Dpol [1], the IC50 is ~2 µM and 2 µM. For the same molecule, the CC50 in the data set “in vitro” came out at 70 µM.

On to `O=C(Sc1cccs1)c1cncc(C#Cc2ccccc2)c1` [4H6], for which half-maximal inhibition against FMDV 3Dpol [1] (IC50) required 8 µM. The “inhibition of HIV-1 RT polymerase activity” value in data set [2] was “No significant inhibition”. Also, the “inhibition of KF polymerase activity” value in data set [3] is given as “No significant inhibition”. Besides, the CC50 in “in vitro” was over 100 µM.

As to `O=S(=O)(NNc1ncnc2sccc12)c1ccc(Cl)cc1` [5D9], on FMDV 3Dpol [4], the Ki amounted to 9.4 ± 2.5 µM and the “kinetic mechanism of inhibition” value is on record as “non-competitive”. On FMDV 3Dpol [1], this molecule returned an IC50 of 12 µM. Moreover, in data set [2], the “inhibition of HIV-1 RT polymerase activity” value is reported as “No significant inhibition”. The “inhibition of KF polymerase activity” value in data set [3] was “No significant inhibition”. Further, in the data set with FMDV A24 Cruzeiro, the “antiviral potency relative to ribavirin” value was about 80 fold and the “inhibition of viral replication” value is recorded as “inhibition of viral replication”. Also, the EC50 with FMDV A24 Cruzeiro (Foot-and-mouth disease virus, BHK-21, 24 h, read-out: EC50 (virus production in FMDV-infected cells)) amounted to 12 µM. In addition, the 90% effect concentration (EC90) in the data set with FMDV A24 Cruzeiro (Foot-and-mouth disease virus, BHK-21, 24 h, read-out: EC90 (virus production in FMDV-infected cells)) was determined as 20 µM. Moreover, the inhibition at 20 µM in the data set on FMDV A24 Cruzeiro (Foot-and-mouth disease virus, BHK-21, read-out: inhibition of virus replication) came to 90%. The CC50 in the data set “in vitro” is over 100 µM.

Regarding `O=S1(=O)C=C(CSc2cccs2)c2cc(Cl)ccc21` [7F8], the “kinetic mechanism of inhibition” value on FMDV 3Dpol [4] is “non-competitive”. Further, the midpoint of inhibition at FMDV 3Dpol [1], the IC50, lay at 10 µM. Besides, in data set [2], the “inhibition of HIV-1 RT polymerase activity” value was “No significant inhibition”. Moreover, the “inhibition of KF polymerase activity” value in data set [3] was “No significant inhibition”. Besides, in “in vitro”, the CC50 is over 100 µM.

For `O=C1C(Cl)=C(Sc2ccccc2Br)C(=O)c2ccccc21` [8C5], the IC50 on FMDV 3Dpol [1] and at WT 3Dpol was 5.4 µM each time. For the same molecule, the “inhibition of HIV-1 RT polymerase activity” value in data set [2] is reported as “No significant inhibition”. In data set [3], the “inhibition of KF polymerase activity” value is “No significant inhibition”. In addition, in the data set on FMDV A24 Cruzeiro, the “inhibition of viral replication” value is “inhibition of viral replication”. Moreover, in “in vitro”, the CC50 amounted to 55 µM.

Regarding `CCOC(=O)/C(=N\Nc1ccc(Br)cc1)C(=O)CSC#N` [9A3], the IC50 against FMDV 3Dpol [1] was found to be 10 µM. Also, the “inhibition of HIV-1 RT polymerase activity” value in data set [2] is “No significant inhibition”. The “inhibition of KF polymerase activity” value in [3] was “No significant inhibition”. Moreover, in “in vitro”, the CC50 was over 100 µM.

As for `Cc1cn([C@@H]2O[C@H](COP(=O)(O)OP(=O)(O)OP(=O)(O)O)C[C@H]2O)c(=O)[nH]c1=O` [DMUT, 3′-deoxy-5-methyl uridine triphosphate], on FMDV 3Dpol [5], 0.68 µM corresponded to half-maximal inhibition (IC50).

As for `NC(=O)c1ncn([C@@H]2O[C@H](CO)[C@@H](O)[C@H]2O)n1` [ribavirin], in the data set on FMDV, the concentration giving a half-maximal response (EC50) was 970 µM and the EC90 is 1700 µM.

For orientation: IC50 means the concentration needed to halve the response being measured. In general, EC50 refers to the midpoint of the concentration-response curve. For orientation: EC90 means the concentration needed for an effect of 90%. By Ki is commonly meant the equilibrium dissociation constant of an inhibitor or competing ligand from its target. The term inhibition denotes the drop in the measured response relative to a control, in per cent.
